According to PubChem BioAssay AID1963837 (Molecular Pharmacology Branch, DTP, NCI, 2024):
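Also: spheroids exposed to drugs for seven days before readout.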

What follows are compounds tested on 843126-344-R-J1-PDC complex spheroid viability (assay: Anticancer human tumor 843126-344-R-J1-PDC patient-derived melanoma cell line growth inhibition [POLQ]). Conditions: second compound 10 µM; first compound 0.01 µM; hits give low values.
Method in brief: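 Growth inhibition in 3D: complex spheroids (tumor PDC, HUVEC, MSC) treated with POLQ inhibitor combinations; where Cmax unknown, highest tested concentration 10 microM, except SN-38 at 1 microM.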
Compound `COc1cccc(OCCCN)c1-c1cc(Nc2cnc(C#N)cn2)n[nH]1` + COC1C(OC(N)=O)C(O)C(Oc2ccc3c(O)c(NC(=O)c4ccc(O)c(CC=C(C)C)c4)c(=O)oc3c2C)OC1(C)C has a viability, T/C of 76.2%. `Cn1ncnc1[C@H]1c2n[nH]c(=O)c3cc(F)cc(c23)N[C@@H]1c1ccc(F)cc1` + COC1C(OC(N)=O)C(O)C(Oc2ccc3c(O)c(NC(=O)c4ccc(O)c(CC=C(C)C)c4)c(=O)oc3c2C)OC1(C)C showed a viability, T/C of 86.9%.

Same assay, conditions: second compound 10 µM; first compound 0.0316 µM; hits give low values
In the case of `COc1cc(C2c3cc4c(cc3C(OC3OC5COC(C)OC5C(O)C3O)C3COC(=O)C23)OCO4)cc(OC)c1O` (configuration not stated) + Cc1cccc(N(C)C(=O)C2C(O)CCN2c2nc(C)cc(C(F)(F)F)c2C#N)c1, the viability, T/C was 84.1%. `COc1cccc(OCCCN)c1-c1cc(Nc2cnc(C#N)cn2)n[nH]1` + COC1C(OC(N)=O)C(O)C(Oc2ccc3c(O)c(NC(=O)c4ccc(O)c(CC=C(C)C)c4)c(=O)oc3c2C)OC1(C)C gave a viability, T/C of 70.2%. For `CC1COCCN1c1cc(C2(S(C)(=N)=O)CC2)nc(-c2ccnc3[nH]ccc23)n1` (configuration not stated) + COC1C(OC(N)=O)C(O)C(Oc2ccc3c(O)c(NC(=O)c4ccc(O)c(CC=C(C)C)c4)c(=O)oc3c2C)OC1(C)C, the viability, T/C was 94.8%. Compound `Cn1ncnc1[C@H]1c2n[nH]c(=O)c3cc(F)cc(c23)N[C@@H]1c1ccc(F)cc1` + COC1C(OC(N)=O)C(O)C(Oc2ccc3c(O)c(NC(=O)c4ccc(O)c(CC=C(C)C)c4)c(=O)oc3c2C)OC1(C)C has a viability, T/C of 80.9%. Work on `CC1COCCN1c1cc(-c2ccnn2C)c2ccnc(-c3ccn[nH]3)c2n1` (configuration not stated) + COC1C(OC(N)=O)C(O)C(Oc2ccc3c(O)c(NC(=O)c4ccc(O)c(CC=C(C)C)c4)c(=O)oc3c2C)OC1(C)C yielded a viability, T/C of 73.3%. For `COc1ccc([C@@H](O)c2cc(-c3ncnc4cc(N5CCOCC5)ccc34)c(F)cc2Cl)nn1` + Nc1ccc(C#CCN(C(=O)Cc2ncc(C(F)(F)F)cc2C(F)(F)F)c2ccc(F)cc2)nn1, the viability, T/C was 80.2%.

Same assay, conditions: second compound 10 µM; first compound 0.1 µM; hits give low values
For `COc1cc(C2c3cc4c(cc3C(OC3OC5COC(C)OC5C(O)C3O)C3COC(=O)C23)OCO4)cc(OC)c1O` (configuration not stated) + Cc1cccc(N(C)C(=O)C2C(O)CCN2c2nc(C)cc(C(F)(F)F)c2C#N)c1, the viability, T/C was 83.1%. Work on `COc1cccc(OCCCN)c1-c1cc(Nc2cnc(C#N)cn2)n[nH]1` + COC1C(OC(N)=O)C(O)C(Oc2ccc3c(O)c(NC(=O)c4ccc(O)c(CC=C(C)C)c4)c(=O)oc3c2C)OC1(C)C yielded a viability, T/C of 55.5%. For `CC1COCCN1c1cc(C2(S(C)(=N)=O)CC2)nc(-c2ccnc3[nH]ccc23)n1` (configuration not stated) + COC1C(OC(N)=O)C(O)C(Oc2ccc3c(O)c(NC(=O)c4ccc(O)c(CC=C(C)C)c4)c(=O)oc3c2C)OC1(C)C, the viability, T/C was 101%. `Cn1ncnc1[C@H]1c2n[nH]c(=O)c3cc(F)cc(c23)N[C@@H]1c1ccc(F)cc1` + COC1C(OC(N)=O)C(O)C(Oc2ccc3c(O)c(NC(=O)c4ccc(O)c(CC=C(C)C)c4)c(=O)oc3c2C)OC1(C)C was tested, and the viability, T/C was 81.7%. Compound `CC1COCCN1c1cc(-c2ccnn2C)c2ccnc(-c3ccn[nH]3)c2n1` (configuration not stated) + COC1C(OC(N)=O)C(O)C(Oc2ccc3c(O)c(NC(=O)c4ccc(O)c(CC=C(C)C)c4)c(=O)oc3c2C)OC1(C)C has a viability, T/C of 77.5%. For `COc1ccc([C@@H](O)c2cc(-c3ncnc4cc(N5CCOCC5)ccc34)c(F)cc2Cl)nn1` + Nc1ccc(C#CCN(C(=O)Cc2ncc(C(F)(F)F)cc2C(F)(F)F)c2ccc(F)cc2)nn1, the viability, T/C was 94.8%.

Same assay, conditions: second compound 10 µM; first compound 0.316 µM; hits give low values
Compound `COc1cc(C2c3cc4c(cc3C(OC3OC5COC(C)OC5C(O)C3O)C3COC(=O)C23)OCO4)cc(OC)c1O` (configuration not stated) + Cc1cccc(N(C)C(=O)C2C(O)CCN2c2nc(C)cc(C(F)(F)F)c2C#N)c1 has a viability, T/C of 79%. Work on `COc1cccc(OCCCN)c1-c1cc(Nc2cnc(C#N)cn2)n[nH]1` + COC1C(OC(N)=O)C(O)C(Oc2ccc3c(O)c(NC(=O)c4ccc(O)c(CC=C(C)C)c4)c(=O)oc3c2C)OC1(C)C yielded a viability, T/C of 40.8%. Compound `CC1COCCN1c1cc(C2(S(C)(=N)=O)CC2)nc(-c2ccnc3[nH]ccc23)n1` (configuration not stated) + COC1C(OC(N)=O)C(O)C(Oc2ccc3c(O)c(NC(=O)c4ccc(O)c(CC=C(C)C)c4)c(=O)oc3c2C)OC1(C)C has a viability, T/C of 74.1%. Compound `CC1COCCN1c1cc(-c2ccnn2C)c2ccnc(-c3ccn[nH]3)c2n1` (configuration not stated) + COC1C(OC(N)=O)C(O)C(Oc2ccc3c(O)c(NC(=O)c4ccc(O)c(CC=C(C)C)c4)c(=O)oc3c2C)OC1(C)C has a viability, T/C of 61.5%. `COc1ccc([C@@H](O)c2cc(-c3ncnc4cc(N5CCOCC5)ccc34)c(F)cc2Cl)nn1` + Nc1ccc(C#CCN(C(=O)Cc2ncc(C(F)(F)F)cc2C(F)(F)F)c2ccc(F)cc2)nn1 was tested, and the viability, T/C was 85.4%.

Same assay, conditions: second compound 10 µM; first compound 1 µM; hits give low values
With `COc1cc(C2c3cc4c(cc3C(OC3OC5COC(C)OC5C(O)C3O)C3COC(=O)C23)OCO4)cc(OC)c1O` (configuration not stated) + Cc1cccc(N(C)C(=O)C2C(O)CCN2c2nc(C)cc(C(F)(F)F)c2C#N)c1 the viability, T/C was 74%. In the case of `COc1cccc(OCCCN)c1-c1cc(Nc2cnc(C#N)cn2)n[nH]1` + COC1C(OC(N)=O)C(O)C(Oc2ccc3c(O)c(NC(=O)c4ccc(O)c(CC=C(C)C)c4)c(=O)oc3c2C)OC1(C)C, the viability, T/C was 37.2%. With `CC1COCCN1c1cc(C2(S(C)(=N)=O)CC2)nc(-c2ccnc3[nH]ccc23)n1` (configuration not stated) + COC1C(OC(N)=O)C(O)C(Oc2ccc3c(O)c(NC(=O)c4ccc(O)c(CC=C(C)C)c4)c(=O)oc3c2C)OC1(C)C the viability, T/C was 89.7%. `CC1COCCN1c1cc(-c2ccnn2C)c2ccnc(-c3ccn[nH]3)c2n1` (configuration not stated) + COC1C(OC(N)=O)C(O)C(Oc2ccc3c(O)c(NC(=O)c4ccc(O)c(CC=C(C)C)c4)c(=O)oc3c2C)OC1(C)C gave a viability, T/C of 46.1%. `COc1ccc([C@@H](O)c2cc(-c3ncnc4cc(N5CCOCC5)ccc34)c(F)cc2Cl)nn1` + Nc1ccc(C#CCN(C(=O)Cc2ncc(C(F)(F)F)cc2C(F)(F)F)c2ccc(F)cc2)nn1 showed a viability, T/C of 82.7%.

Same assay, conditions: second compound 10 µM; first compound 3.16 µM; hits give low values
In the case of `COc1cc(C2c3cc4c(cc3C(OC3OC5COC(C)OC5C(O)C3O)C3COC(=O)C23)OCO4)cc(OC)c1O` (configuration not stated) + Cc1cccc(N(C)C(=O)C2C(O)CCN2c2nc(C)cc(C(F)(F)F)c2C#N)c1, the viability, T/C was 50.6%. Compound `CC1COCCN1c1cc(C2(S(C)(=N)=O)CC2)nc(-c2ccnc3[nH]ccc23)n1` (configuration not stated) + COC1C(OC(N)=O)C(O)C(Oc2ccc3c(O)c(NC(=O)c4ccc(O)c(CC=C(C)C)c4)c(=O)oc3c2C)OC1(C)C has a viability, T/C of 69.3%. With `CC1COCCN1c1cc(-c2ccnn2C)c2ccnc(-c3ccn[nH]3)c2n1` (configuration not stated) + COC1C(OC(N)=O)C(O)C(Oc2ccc3c(O)c(NC(=O)c4ccc(O)c(CC=C(C)C)c4)c(=O)oc3c2C)OC1(C)C the viability, T/C was 42.9%. In the case of `COc1ccc([C@@H](O)c2cc(-c3ncnc4cc(N5CCOCC5)ccc34)c(F)cc2Cl)nn1` + Nc1ccc(C#CCN(C(=O)Cc2ncc(C(F)(F)F)cc2C(F)(F)F)c2ccc(F)cc2)nn1, the viability, T/C was 78.2%.

Same assay, conditions: second compound 10 µM; first compound 10 µM; hits give low values
`COc1cc(C2c3cc4c(cc3C(OC3OC5COC(C)OC5C(O)C3O)C3COC(=O)C23)OCO4)cc(OC)c1O` (configuration not stated) + Cc1cccc(N(C)C(=O)C2C(O)CCN2c2nc(C)cc(C(F)(F)F)c2C#N)c1 was tested, and the viability, T/C was 44.8%. With `CC1COCCN1c1cc(C2(S(C)(=N)=O)CC2)nc(-c2ccnc3[nH]ccc23)n1` (configuration not stated) + COC1C(OC(N)=O)C(O)C(Oc2ccc3c(O)c(NC(=O)c4ccc(O)c(CC=C(C)C)c4)c(=O)oc3c2C)OC1(C)C the viability, T/C was 48.7%. Compound `CC1COCCN1c1cc(-c2ccnn2C)c2ccnc(-c3ccn[nH]3)c2n1` (configuration not stated) + COC1C(OC(N)=O)C(O)C(Oc2ccc3c(O)c(NC(=O)c4ccc(O)c(CC=C(C)C)c4)c(=O)oc3c2C)OC1(C)C has a viability, T/C of 24.3%. In the case of `COc1ccc([C@@H](O)c2cc(-c3ncnc4cc(N5CCOCC5)ccc34)c(F)cc2Cl)nn1` + Nc1ccc(C#CCN(C(=O)Cc2ncc(C(F)(F)F)cc2C(F)(F)F)c2ccc(F)cc2)nn1, the viability, T/C was 62.6%.
